Test results published in article PMC12084297, “Cytoplasmic connexin43-microtubule interactions promote glioblastoma stem-like cell maintenance and tumorigenicity” (Cell Death & Disease, 2025).

What was measured:
PDX GBM22 tumor [1] = assay: PDX GBM22 tumor growth in mouse flank; format: in vivo, mouse (athymic nude), human GBM22 cells; conditions: 300 μM intratumorally every day for 14 days, n = 7 mice per group
Protocol: Animal studies were approved by the Institutional Animal Care and Use Committee (IACUC) of Virginia Tech. Female athymic nude mice (Envigo) aged 6-8 weeks were used for the maintenance and propagation of PDX GBM22 cells. PDX GBM22 tumors were maintained by serial passage in nude mouse flanks as described previously. Briefly, tumors were harvested 14–18 days post-injection and glioblastoma cells were mechanically and enzymatically dissociated. […] After 2 days, tumors were measured and mice were randomly separated into three groups (7 mice per group), and vehicle/control (PBS), JM2-scrambled or JM2 were administered at 300 μM intratumorally every day for 14 days. Tumors were then measured by blinded investigators and harvested for analysis (see section below). Tumor volume was calculated using the formula (length × width^2)/2. […] After 7 days, tumors were measured and mice were randomly separated into three groups; vehicle/control (PBS), JM2-scrambled, and JM2 (3 mice per group). […] Tumor sizes were measured by electronic calipers at different times by blinded investigators, and tumor volume was calculated using the formula (length × width^2)/2.

LN229/GSC tumor = assay: TUNEL and H&E of LN229/GSC-derived tumor sections; format: in vivo, mouse (BALB/c nude), human LN229/GSC cells; conditions: LN229/GSC tumors, 300 µM intratumorally every other day, after 33 days
Protocol: (§1) Tumors were harvested, snap-frozen in Tissue-Tek® O.C.T. compound (Sakura), and stored at −80 °C until sectioning. […] sections were cut using a Leica CM1850 UV cryostat, placed onto Superfrost Plus^TM slides (Fisher Scientific) and fixed in −20 °C acetone for 5 minutes before air drying. Slides were stored at −80 °C prior to labeling. Tumors sections were then rehydrated in PBS for 5 min, permeabilized in 0.1% Triton X-100 in PBS for 1 h at room temperature, and washed four times with PBS (2 x quick, 2 × 5 min) prior to incubating with streptavidin conjugated to Alexa Fluor 647 (Thermo Fisher) diluted in high-salt buffer (0.5 M NaCl, 10 mM Hepes) for 30 min at room temperature. Tumor sections were then washed four times with high-salt buffer (2 x quick, 2 × 10 min), and twice with PBS (2 × 5 min) before using One-step TUNEL In Situ Apoptosis kit (Green Elab Fluor® 488; Elabscience), according to manufacturer’s instructions. Tumor sections were then washed in PBS (3 × 5 min), incubated with DAPI (Thermo Fisher) in PBS for 5 min, and washed again with PBS (4 × 5 min) before the slides were mounted using Prolong Gold Antifade (Thermo Fisher). GBM22-derived tumor sections were analyzed using fluorescence confocal microscopy on a Nikon NIE upright confocal microscope, while LN229/GSC-derived tumor sections were observed using LED illumination microscopy on a Revolve microscope. For hematoxylin and eosin (H&E) staining, tumor sections were stained using a Histo-Tek® SL Slide Stainer (Sakura), and observed using phase contrast microscopy on a Revolve microscope. Investigators were blinded for all image acquisition experiments.

α-tubulin = assay: Cellular thermal shift assay (CETSA), α-tubulin target engagement; format: binding, human; conditions: fresh VTC-037 GSC lysates, 3-fold dilutions 222.2-2.7 nM, 1 h, heat challenge 57 °C (Tagg(75)) 20 min, immunoblot, normalized to DMSO control
Protocol: (§2) For an initial determination of the melting profile of α- and β- tubulin, fresh lysates of GSCs prepared in non-denaturing buffer were dispensed into 96-well PCR plate in stem cell medium (approximately 10,000 cells/well/50 µl), and then subjected to temperature gradient (37–65 °C) for 20 min. Subsequently, centrifugation was performed at 14,000 rpm to sediment the unstable protein content. Supernatant was collected and SDS-PAGE gel was run, and immunodetection was performed to detect α- and β- tubulin using specific primary antibodies described above. A rabbit antibody against β-actin (Cell Signaling Technology; 4970) was used as negative control. Band intensities were quantified on LI-COR C-DiGit Blot Scanner, and subsequently Tagg(50) and Tagg(75) values were calculated for α- and β- tubulin. In a subsequent run, fresh lysates of GSCs were treated at various doses with 3-fold dilutions (222.2, 74.0, 24.7, 8.2 and 2.7 nM) of peptides JM2 and JM2-scrambled, together with DMSO as control, for 1 h. Samples were then subjected to heat challenge at 57 °C for 20 min, and unstable protein was removed by centrifugation step. Following an immunoblotting step, band intensities of the stable tubulin was quantified, and normalized to DMSO control. EC50 values of engagement for both peptide with α- and β- tubulin were subsequently calculated.

β-tubulin = assay: Cellular thermal shift assay (CETSA), β-tubulin target engagement; format: binding, human; conditions: fresh VTC-037 GSC lysates, 3-fold dilutions 222.2-2.7 nM, 1 h, heat challenge 57 °C (Tagg(75)) 20 min, immunoblot, normalized to DMSO control
Protocol: as §2

VTC-034 GSCs = assay: Caspase 3/7 activity, VTC-034 GSCs; format: cell-based, human; conditions: VTC-034 adherent GSCs, 10, 50 or 100 μM, 48 h, Caspase-Glo 3/7
Protocol: Cells were plated in 96-well plates (2000–5000 cells per well) and treated the following day with TMZ (10, 50, or 100 μM), antennapedia, JM2-scrambled, or JM2 (10, 50, or 100 μM). After 4 days, cell viability was monitored following addition of MTS reagent (Promega) according to manufacturer’s instructions. The absorbance at 490 nm was measured using a SpectraMax i3 or iD3 microplate reader (Molecular Devices). For the caspase 3/7 activity assay, cells were plated in 96-well plates (2000 cells per well) and treated with TMZ or peptides as described above. The activity of caspase 3/7 was measured after 48 h using the Caspase-Glo® 3/7 assay (Promega) following the manufacturer’s instructions. Fold change of caspase 3/7 activity was defined as the ratio of caspase 3/7 luminescence in treated cells compared to controls.

PDX GBM22 tumor [2] = assay: TUNEL and H&E of GBM22-derived tumor sections; format: in vivo, mouse (athymic nude), human GBM22 cells; conditions: GBM22 tumors, 300 μM intratumorally every day for 14 days, harvested after 16 days
Protocol: as §1

| Sequence | GBM22-derived tumor growth (PDX GBM22 tumor [1]) | Cell death in tumor sections (TUNEL) (LN229/GSC tumor) | EC50 (α-tubulin) [nM] | EC50 (β-tubulin) [nM] | Apoptosis induction (caspase 3/7 activity) (VTC-034 GSCs) | Cell death in tumor sections (TUNEL) (PDX GBM22 tumor [2]) | Cell death in tumor sections (H&E) (LN229/GSC tumor) | Cell death in tumor sections (H&E) (PDX GBM22 tumor [2]) |
| --- | --- | --- | --- | --- | --- | --- | --- | --- |
| GSDVFKRKFVDRKVG [JM2-scrambled, reference compound] | observed GBM22-derived tumor formation | no significant cell death was observed | > 200 | > 200 | inefficient in inducing apoptosis | no significant correlation was observed |  |  |
| VFFKGVKDRVKGRSD [JM2] | did not detect any significant tumor growth | increased LN229-derived GSC death that positively correlated with the presence of JM2 within the tumors | 8.4 | 7.9 | increased caspase 3/7 activity in these cells in a dose-dependent manner | Positive JM2 signal within the tumors correlated with an increase in cell death | further confirmed by H&E staining | Increased cell death within JM2-treated tumors was further confirmed |
